Test results published in the NIST ThermoML archive (doi:10.1016/j.fluid.2008.01.030).
± gives the expanded uncertainty stated by the source. Each block holds one molecule with its values, some of them ahead of it.

Settings: Liquid, Closed cell (Static) method

SMILES: CC(C)C [2-methylpropane]
vapor or sublimation pressure (307.86 K): 459.8 ± 2.3 kPa

SMILES: C=C(C)C [2-methylpropene]
vapor or sublimation pressure (312.6 K): 465.3 ± 2.3 kPa

SMILES: C/C=C/C [(E)-2-butene]
vapor or sublimation pressure (317.29 K): 413.8 ± 2.2 kPa

SMILES: C/C=C\C [(Z)-2-butene]
vapor or sublimation pressure (312.59 K): 332.2 ± 1.9 kPa

The remaining lines, values ahead:

vapor or sublimation pressure (312.57 K): 454.5 ± 2.3 kPa
SMILES: C=CCC [1-butene]

vapor or sublimation pressure (307.86 K): 91.7 ± 1.3 kPa
vapor or sublimation pressure (312.58 K): 107.7 ± 1.3 kPa
vapor or sublimation pressure (312.59 K): 106.2 ± 1.3 kPa
vapor or sublimation pressure (312.6 K): 107.4 ± 1.3 kPa
vapor or sublimation pressure (317.32 K): 126 ± 1.3 kPa
vapor or sublimation pressure (317.35 K): 126 ± 1.3 kPa
SMILES: CSC [2-thiapropane]

vapor or sublimation pressure (317.47 K): 425.7 ± 2.1 kPa
SMILES: CCCC [butane]
